# From US20040013679A1, “LL-37 is an immunostimulant” (priority 2000, published 2004)
# Marks after values point to notes of the source that are not given here.
# What was measured:
# [1] = test system: human peripheral blood monocytes; assay: Monocyte chemotaxis assay (48-well microchemotaxis chamber, incl. checkerboard analysis); type: cell-based; details: for Migrated monocytes (checkerboard analysis): monocytes 1 × 10^6/ml, Mean ± SD of triplicate wells
# Experimental: A. The migration of monocytes (1×10^6 cells/ml) was assessed by chemotaxis assay using 5-μm uncoated membranes. Spontaneous cell migration (without LL-37) was 30-50 cells/HPF. The average C. I. (Mean ±SD) of triplicate wells is shown. *p<0.05 when compared with chemotaxis medium alone (open bar). […]
# (§1) Human peripheral blood mononuclear cells (PBMC) were isolated from leukopacks (Courtesy of the Transfusion Medicine Department, NIH Clinic Center, Bethesda, MD) by routine Ficoll-Hypaque density gradient centrifugation. Monocytes were purified from human PBMC with the use of MACS CD14 monocyte isolation kit (Miltenyi Biotech Inc., Auburn, CA) according to the manufacturer's recommendation (12). Neutrophils were purified from the same leukopacks by 3% dextran sedimentation. T cells were purified from PBMC by the use of Human CD4 T Cell Enrichment Columns (R & D Systems, Minneapolis, MN) (12). The purity of neutrophils, monocytes, and T cells by FACScan analysis was more than 95%. Rat basophilic leukemia cells stably transfected with epitope-tagged formyl peptide receptor (ETFR cells) were generously provided by Drs. H. Ali and R. Snyderman (Duke University, Durham, NC), and maintained in the presence of 0.8 mg/ml of geneticin in DMEM supplemented with 10% FBS. Human embryonic kidney cells 293 stably transfected with FPRL1 (designated FPRL1/293 cells thereafter) were a gift of Drs. P. M. Murphy and J. L. Gao (NIAID, NIH, Bethesda, Md) and were maintained in the presence of 2 mg/ml of geneticin in DMEM supplemented with 10% FBS.
# (§2) Migration of neutrophils, monocytes, T cells, and HEK293 or transfectant cells in response to chemotactic factors was assessed using a 48-well microchemotaxis chamber technique as previously described (17, 18). Chemotactic factors diluted in chemotaxis medium (CM, RPMI 1640 containing 1% BSA) were placed in the wells of the lower compartment of the chamber (Neuro Probe, Cabin John, […]), and cells suspended in CM were added to the upper compartment. The lower and upper compartments were separated by a polycarbonate membrane (Osmonics, Livermore, Calf.). After incubation at 37_C in humidified air with 5% CO2 for a period of time (60 min for neutrophils, 90 min for monocytes, 180 min for T cells, and 300 min for HEK293, ETFR, and FPRL1/293 cells), the membranes were removed, scraped, stained, and counted. The results are presented as number of cells per high power field (No./HPF) or as chemotactic index (C.I.).
# [2] = test system: human peripheral blood monocytes; assay: Ca2+ mobilization assay in monocytes (Fura-2); type: cell-based; set-up: Ca2+ flux in freshly isolated monocytes at single concentration: dose or concentration left out as unconfirmed
# Description: as §1
# Monocytes or FPRL1/293 cells (10^7 cells/ml in RPMI 1640 containing 10% FBS) were loaded by incubating with 5 μM Fura-2 (Molecular Probe) at 24_C for 30 minutes in the dark. Subsequently, the loaded cells were washed with and resuspended (10^6 cells/ml) in saline buffer (138 mM NaCl, 6 mM KC1, 1 mM CaCl2, 10 mM HEPES, 5 mM glucose, and 1% BSA, pH 7.4). Each 2 ml of loaded cells suspension was then transferred into a quartz cuvette, which was placed in a luminescence spectrometer LS50 B (Perkin-Elmer Limited, Beaconsfield, U.K). Ca^2+mobilization of the cells in response to chemotactic factors was measured by recording the ratio of fluorescence emitted at 510 nm after sequential excitation at 340 nm and 380 nm.
# [3] = target: T1, FPRL1 (HEK293 cells stably transfected with FPRL1) (Homo sapiens, UniProt P25090); assay: Chemotaxis of FPRL1/293 cells; type: cell-based; details: FIG. 3A
# T1 construct: expressed in transfected cells; gift of P. M. Murphy and J. L. Gao (NIAID, NIH)
# T1 sequence (P25090 1-351): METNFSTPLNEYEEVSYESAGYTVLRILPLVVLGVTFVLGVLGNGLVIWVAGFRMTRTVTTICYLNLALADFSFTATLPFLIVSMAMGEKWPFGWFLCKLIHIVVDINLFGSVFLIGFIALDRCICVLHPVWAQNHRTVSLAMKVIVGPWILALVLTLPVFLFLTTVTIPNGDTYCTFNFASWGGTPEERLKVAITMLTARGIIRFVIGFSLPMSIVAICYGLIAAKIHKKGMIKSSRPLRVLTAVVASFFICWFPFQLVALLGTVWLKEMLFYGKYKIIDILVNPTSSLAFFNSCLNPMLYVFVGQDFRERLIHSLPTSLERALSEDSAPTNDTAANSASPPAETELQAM
# Experimental: (§3) A. Selective induction of FPRL1/293 cell chemotaxis by LL-37. The migration of parental HEK293 (open bars), FPRL1/293 (dotted bars), or ETFR (closed bars) cells was assessed by chemotaxis assay with the use of collagen-coated 10-μm membranes. Cells were used at a concentration of 1×10^6 cells/ml. The average C. I. (Mean±SD) of triplicate wells is shown. Spontaneous cell migration (without LL-37) was 10-20 cells/HPF. *p<0.05 when compared with chemotaxis medium alone.
# (§4) Human peripheral blood mononuclear cells (PBMC) were isolated from leukopacks (Courtesy of the Transfusion Medicine Department, NIH Clinic Center, Bethesda, MD) by routine Ficoll-Hypaque density gradient centrifugation. Monocytes were purified from human PBMC with the use of MACS CD14 monocyte isolation kit (Miltenyi Biotech Inc., Auburn, CA) according to the manufacturer's recommendation (12). […]
# (§5) Migration of neutrophils, monocytes, T cells, and HEK293 or transfectant cells in response to chemotactic factors was assessed using a 48-well microchemotaxis chamber technique as previously described (17, 18). […] After incubation at 37_C in humidified air with 5% CO2 for a period of time (60 min for neutrophils, 90 min for monocytes, 180 min for T cells, and 300 min for HEK293, ETFR, and FPRL1/293 cells), the membranes were removed, scraped, stained, and counted. […]
# parental HEK293 cells = assay: Chemotaxis of parental HEK293 cells; type: cell-based, human; details: FIG. 3A
# Experimental: as §3, §2
# [4] = target: T2, formyl peptide receptor (ETFR cells) (Homo sapiens, UniProt P21462); assay: Chemotaxis of ETFR cells; type: cell-based; details: FIG. 3A
# T2 construct: expressed in transfected cells; provided by H. Ali and R. Snyderman (Duke University)
# T2 sequence (P21462 1-350): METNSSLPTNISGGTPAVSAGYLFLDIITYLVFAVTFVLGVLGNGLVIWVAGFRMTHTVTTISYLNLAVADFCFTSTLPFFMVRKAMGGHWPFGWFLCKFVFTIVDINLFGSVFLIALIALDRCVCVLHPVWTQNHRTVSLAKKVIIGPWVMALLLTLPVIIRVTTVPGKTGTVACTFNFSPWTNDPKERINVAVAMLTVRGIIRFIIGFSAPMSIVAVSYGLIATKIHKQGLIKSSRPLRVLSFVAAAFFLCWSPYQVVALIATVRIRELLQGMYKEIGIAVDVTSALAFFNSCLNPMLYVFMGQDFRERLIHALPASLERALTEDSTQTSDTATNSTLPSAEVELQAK
# Experimental: as §3, §4, §5
# FPRL1 (FPRL1/293 cells) = target: T3, FPRL1 (FPRL1/293 cells) (Homo sapiens, UniProt P25090); assay: Ca2+ mobilization assay in FPRL1/293 cells; type: cell-based; details: FIG. 3B
# T3 construct: expressed in transfected cells; gift of P. M. Murphy and J. L. Gao (NIAID, NIH)
# T3 sequence (P25090 1-351): T1 sequence (P25090 1-351)
# Description: B. LL-37-induced Ca^2+ flux in FPRL1/293 cells. The arrow indicates the time point where LL-37 was applied to the cells.
# as §4, with “(12). Neutrophils were purified from the same leukopacks by 3% dextran sedimentation. T cells were purified from PBMC by the use of Human CD4 T Cell Enrichment Columns (R & D Systems, Minneapolis, MN) (12). The purity of neutrophils, monocytes, and T cells by FACScan analysis was more than 95%.” for “(12).”
# Monocytes or FPRL1/293 cells (10^7 cells/ml in RPMI 1640 containing 10% FBS) were loaded by incubating with 5 μM Fura-2 (Molecular Probe) at 24_C for 30 minutes in the dark. […] Each 2 ml of loaded cells suspension was then transferred into a quartz cuvette, which was placed in a luminescence spectrometer LS50 B (Perkin-Elmer Limited, Beaconsfield, U.K). Ca^2+mobilization of the cells in response to chemotactic factors was measured by recording the ratio of fluorescence emitted at 510 nm after sequential excitation at 340 nm and 380 nm.
# [5] = target: T2, formyl peptide receptor (ETFR cells); assay: Ca2+ flux in ETFR cells; type: cell-based
# [6] = test system: human peripheral blood neutrophils; assay: Neutrophil chemotaxis assay; type: cell-based
# Experimental: (§6) FIGS. 4A-B show the chemotaxis of human neutrophils (A) and CD4 T lymphocytes (B) in response to LL-37. The cell migration was assessed by chemotaxis assay with the use of uncoated (A) or fibronectin-coated (B) 5 μm membranes. The results are presented as the average C. I. (Mean±SD) of triplicate wells. *p<0.05 when compared with spontaneous cell migration (chemotactic medium alone). Neutrophils and CD4 T cells were used at a concentration of 1×10^6 cells/ml and 5×10^6 cells/ml, respectively. Spontaneous neutrophil and T cell migration (without LL-37) was 30-50 and 30-40 cells/HPF, respectively.
# (§7) Human peripheral blood mononuclear cells (PBMC) were isolated from leukopacks (Courtesy of the Transfusion Medicine Department, NIH Clinic Center, Bethesda, MD) by routine Ficoll-Hypaque density gradient centrifugation. […]
# as §5
# human CD4 T cells = assay: CD4 T lymphocyte chemotaxis assay; type: cell-based
# Experimental: as §6, §7, §5
# immature dendritic cells [7] = assay: Chemotaxis of monocyte-derived immature dendritic cells; type: cell-based, human; details: monocytes differentiated into immature dendritic cells
# immature dendritic cells [8] = assay: Ca2+ mobilization in monocyte-derived immature dendritic cells; type: cell-based, human; details: monocytes differentiated into immature dendritic cells
# CCR2 = target: T4, CCR2 (Homo sapiens, UniProt P41597); assay: Examination of HEK293 cells stably transfected to express CCR2; type: cell-based
# T4 construct: expressed in transfected cells
# Description: To mediate its chemotactic effect on monocytes, LL-37 must use a chemotactic receptor expressed by monocytes, but not by monocyte-derived immature dendritic cells.
# [9] = 10% human AB serum; LL-37 at 10^−5 M; cited from earlier work
# mammalian cells = details: cited from earlier work
# T4 sequence (P41597 whole entry): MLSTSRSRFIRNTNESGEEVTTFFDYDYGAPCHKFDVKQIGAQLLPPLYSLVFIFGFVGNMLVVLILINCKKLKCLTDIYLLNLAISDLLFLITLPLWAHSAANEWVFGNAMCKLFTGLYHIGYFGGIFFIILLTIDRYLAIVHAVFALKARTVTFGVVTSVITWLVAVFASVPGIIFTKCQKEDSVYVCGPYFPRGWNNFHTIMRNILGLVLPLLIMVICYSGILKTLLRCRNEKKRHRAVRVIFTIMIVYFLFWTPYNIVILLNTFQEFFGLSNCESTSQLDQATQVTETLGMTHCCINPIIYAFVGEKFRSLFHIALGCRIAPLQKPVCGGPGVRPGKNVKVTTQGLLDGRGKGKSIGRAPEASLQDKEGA
substance,measurement,setting,value
"LL-37: 37-residue mature antimicrobial peptide cleaved from hCAP18, human cathelicidin; synthesized by solid-phase Fmoc chemistry",LL-37-induced chemotaxis of monocytes in presence of serum,"[1]; 10% human AB serum, FIG. 2B",not significantly inhibited
same,Migrated monocytes (checkerboard analysis),"[1]; LL-37 lower wells 0 μM, upper wells 1 μM",45 ± 6 No./HPF
same,Migrated monocytes (checkerboard analysis),"[1]; LL-37 lower wells 0 μM, upper wells 10 μM",44 ± 7 No./HPF
same,Migrated monocytes (checkerboard analysis),"[1]; LL-37 lower wells 1 μM, upper wells 0 μM",135 ± 15** No./HPF
same,Migrated monocytes (checkerboard analysis),"[1]; LL-37 lower wells 1 μM, upper wells 1 μM",50 ± 8 No./HPF
same,Migrated monocytes (checkerboard analysis),"[1]; LL-37 lower wells 1 μM, upper wells 10 μM",40 ± 6 No./HPF
same,Migrated monocytes (checkerboard analysis),"[1]; LL-37 lower wells 10 μM, upper wells 0 μM",495 ± 29** No./HPF
same,Migrated monocytes (checkerboard analysis),"[1]; LL-37 lower wells 10 μM, upper wells 1 μM",265 ± 5** No./HPF
same,Migrated monocytes (checkerboard analysis),"[1]; LL-37 lower wells 10 μM, upper wells 10 μM",95 ± 2* No./HPF
same,Optimal concentration for induction of monocyte migration,"[1]; dose-dependent, FIG. 1A",10^−5 M
same,Induction of Ca2+ flux in monocytes,[2]; FIG. 1B,dose-dependently induced Ca^2+ flux
same,Desensitization of Su peptide-induced Ca2+ flux in monocytes,"[2]; Su peptide after LL-37 at 10^−5 M, FIG. 3C b",almost completely desensitized
same,Ca2+ flux in freshly isolated monocytes at single concentration,"[2]; peptide, FIG. 3C a and c",induced Ca^2+ flux to a similar extent
same,Migration of FPRL1/293 cells,[3],migrated in response to LL-37 in a dose-dependent manner
same,Migration of parental HEK293 cells,parental HEK293 cells,did not respond
same,Migration of ETFR cells,[4],did not respond
same,Ca2+ flux in FPRL1/293 cells,FPRL1 (FPRL1/293 cells),induced Ca^2+flux in a dose-dependent manner
same,Ca2+ flux in ETFR cells,[5],not in ETFR cells
same,Optimal concentration to chemoattract human leukocytes (neutrophils),[6]; FIG. 4,10^−5 M
same,Migration of purified neutrophils,[6]; FIG. 4A,induced dose-dependent migration
same,Optimal concentration to chemoattract human leukocytes (CD4 T cells),human CD4 T cells; FIG. 4,10^−5 M
same,Migration of CD4 T cells,human CD4 T cells; FIG. 4B,induced dose-dependent migration
same,Chemotaxis response of immature dendritic cells,immature dendritic cells [7],could not respond
same,Ca2+ mobilization response of immature dendritic cells,immature dendritic cells [8],could not respond
same,CCR2 as a receptor (CCR2-transfected HEK293 cells),CCR2,CCR2 was not a receptor
same,Antimicrobial activity in presence of serum,[9],completely block
same,Concentration damaging mammalian cells (cytocidal effect),mammalian cells,above 5×10^−5 M
